For eight compounds, Ki results are on record in patent US20070254917A1, “INTRACELLULAR RECEPTOR MODULATOR COMPOUNDS AND METHODS” (priority 2004, published 2007).

SMILES strings stand for the structures.

One assay addresses T1, human mineralocorticoid Receptor-α (MRα) (Homo sapiens, UniProt P08235).
T1 construct: made in house; host or cells: Sf21 insect cells (baculovirus), as described for GR
T1 sequence (P08235 1-984): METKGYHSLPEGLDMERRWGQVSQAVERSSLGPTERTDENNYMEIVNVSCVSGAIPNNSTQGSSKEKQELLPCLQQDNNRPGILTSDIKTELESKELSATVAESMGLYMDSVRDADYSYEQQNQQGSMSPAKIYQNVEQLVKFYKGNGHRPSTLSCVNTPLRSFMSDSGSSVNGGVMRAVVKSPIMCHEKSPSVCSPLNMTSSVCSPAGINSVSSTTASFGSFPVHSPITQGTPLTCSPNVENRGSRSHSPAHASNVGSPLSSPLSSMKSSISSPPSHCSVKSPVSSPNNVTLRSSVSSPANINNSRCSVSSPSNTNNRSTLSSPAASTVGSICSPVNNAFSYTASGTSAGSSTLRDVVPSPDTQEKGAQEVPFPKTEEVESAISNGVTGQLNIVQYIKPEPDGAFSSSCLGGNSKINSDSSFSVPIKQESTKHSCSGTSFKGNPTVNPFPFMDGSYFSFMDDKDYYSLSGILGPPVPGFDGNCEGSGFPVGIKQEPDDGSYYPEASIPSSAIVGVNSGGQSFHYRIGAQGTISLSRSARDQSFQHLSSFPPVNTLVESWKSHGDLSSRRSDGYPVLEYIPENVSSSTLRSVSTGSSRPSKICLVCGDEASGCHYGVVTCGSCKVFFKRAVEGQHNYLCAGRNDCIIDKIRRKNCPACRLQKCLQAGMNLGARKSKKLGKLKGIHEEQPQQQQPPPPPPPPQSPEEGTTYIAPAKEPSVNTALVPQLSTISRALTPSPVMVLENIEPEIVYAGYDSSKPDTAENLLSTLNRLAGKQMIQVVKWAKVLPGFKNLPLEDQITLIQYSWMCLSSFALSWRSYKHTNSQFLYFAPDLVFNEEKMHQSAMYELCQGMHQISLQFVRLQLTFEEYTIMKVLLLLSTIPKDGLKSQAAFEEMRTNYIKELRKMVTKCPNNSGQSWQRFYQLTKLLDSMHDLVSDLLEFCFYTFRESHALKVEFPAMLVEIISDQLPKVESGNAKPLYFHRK
The assay can be described thus: Mineralocorticoid binding assay ([3H]aldosterone displacement, MR lysate).
Conditions: not given
On the procedure: Human mineralocorticoid receptor protein was prepared from a baculovirus expression plasmid comprising cDNA encoding human mineralocorticoid Receptor-α (MRα), as described for GR (Example 158).
Binding assay samples were prepared in separate mini-tubes in a 96-well format at 4° C. Each binding assay sample was prepared in a volume of 250 μl of MR-Assay Buffer (10% glycerol, 10 mM sodium phosphate, 10 mM potassium fluoride, 20 mM sodium molybdate, 0.25 mM CHAPS, 2 mM DTT, (adjusted to pH 7.35)) containing 5-10 μg of MR lysate; 2-4 nM of [^3H]aldosterone; unlabeled aldosterone; and a test compound. Each test compound was assayed at several different concentrations, ranging from 0 to 10^−5 M and each was tested in the presence and in the absence of several different concentrations of unlabeled aldosterone. Each concentration of each test compound was assayed in triplicate. The assay samples were incubated for 16 hours at 4° C.
After incubation, protein was precipitated with hydroxylapatite, collected, and counted as described in Example 158 for GR. Specific binding for a particular sample was calculated using the same equation as was used for GR: (Sample CPM)−(Average Non-specific CPM) Average Non-specific CPM was defined as the amount of radioactivity from samples comprising an excess (i.e. 1000 nM) of unlabeled aldosterone. […] Ki values were determined using the Cheng-Prusoff equation using a previously determined Kd value for aldosterone: Ki=IC50/(1+[L]/Kd) [L]=concentration of labeled aldosterone Kd=dissociation constant of labeled aldosterone
`CCC(=O)c1cccc(-c2cc(C)c3c(c2Cl)C(C)=CC(C)(C)N3)c1` [Compound 238, 5-Chloro-1,2-dihydro-2,2,4,8-tetramethyl-6-[3-(propionyl)phenyl]quinoline]: the affinity corresponds to a Ki of 18 nM. Same read-out and setting: the figure for `Cc1cc(-c2csc(C#N)c2)c(Cl)c2c1NC(C)(C)CC2C` (racemic) [Compound 244, (±)-5-Chloro-6-(5-cyanothiophen-3-yl)-1,2,3,4-tetrahydro-2,2,4,8-tetramethylquinoline] is 6 nM. `CC1=CC(C)(C)Nc2c(C)cc(-c3cccc(C)c3)c(Cl)c21` [Compound 234, 5-Chloro-1,2-dihydro-2,2,4,8-tetramethyl-6-(3-methylphenyl)quinoline] came in with an inhibitory constant (Ki) of 85 nM.

For `Cc1cc(-c2cncnc2)c(Cl)c2c1NC(C)(C)CC2C` (racemic) [Compound 256, (±)-5-Chloro-1,2,3,4-tetrahydro-2,2,4,8-tetramethyl-6-(pyrimidin-5-yl)quinoline], the Ki is 60 nM.

`CC1=CC(C)(C)Nc2ccc(-c3cccc(C(N)=O)c3)c(Cl)c21` [Compound 239, 6-(3-Carbamoylphenyl)-5-chloro-1,2-dihydro-2,2,4-trimethylquinoline] returned a Ki of 22 nM. `CC1=CC(C)(C)Nc2ccc(-c3cccc(C(F)(F)F)c3)c(Cl)c21` [Compound 230, 5-Chloro-1,2-dihydro-2,2,4-trimethyl-6-[3-(trifluoromethyl)phenyl]quinoline] gave a Ki of 12 nM. `CC(=O)Oc1c(-c2cccc(C#N)c2)cc(C)c2c1C(C)CC(C)(C)N2` (racemic) [Compound 245, (±)-5-Acetoxy-6-(3-cyanophenyl)-1,2,3,4-tetrahydro-2,2,4,8-tetramethylquinoline] displayed a Ki of 47 nM.

Another assay has as its target T2, human glucocorticoid receptor protein (GR) (Homo sapiens, UniProt P04150).
T2 construct: made in house; host or cells: Sf21 insect cells (baculovirus)
T2 sequence (P04150 1-777): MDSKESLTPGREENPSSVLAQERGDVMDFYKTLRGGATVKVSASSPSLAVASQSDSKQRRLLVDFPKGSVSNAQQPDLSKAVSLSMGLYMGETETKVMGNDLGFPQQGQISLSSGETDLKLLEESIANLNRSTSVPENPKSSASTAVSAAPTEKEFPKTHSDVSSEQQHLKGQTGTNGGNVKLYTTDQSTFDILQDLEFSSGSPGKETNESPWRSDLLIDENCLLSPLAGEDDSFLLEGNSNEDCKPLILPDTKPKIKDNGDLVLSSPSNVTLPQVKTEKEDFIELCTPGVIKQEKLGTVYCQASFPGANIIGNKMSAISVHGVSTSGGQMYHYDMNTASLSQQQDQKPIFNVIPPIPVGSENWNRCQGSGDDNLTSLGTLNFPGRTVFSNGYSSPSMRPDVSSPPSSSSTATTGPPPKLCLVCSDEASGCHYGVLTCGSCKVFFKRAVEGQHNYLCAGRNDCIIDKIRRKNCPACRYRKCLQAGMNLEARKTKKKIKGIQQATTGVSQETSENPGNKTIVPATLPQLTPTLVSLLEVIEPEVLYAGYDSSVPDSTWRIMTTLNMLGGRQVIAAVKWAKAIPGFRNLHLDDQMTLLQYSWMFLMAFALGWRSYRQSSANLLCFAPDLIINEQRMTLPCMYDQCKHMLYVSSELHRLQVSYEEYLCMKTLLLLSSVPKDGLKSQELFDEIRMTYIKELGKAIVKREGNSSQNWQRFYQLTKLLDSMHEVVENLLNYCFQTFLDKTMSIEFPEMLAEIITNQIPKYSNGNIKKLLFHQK
The assay can be described thus: Glucocorticoid binding assay ([3H]dexamethasone displacement, GR lysate). As to conditions: baculovirus-expressed GR lysate from Sf21 cells; 2-4 nM [3H]dexamethasone; 16 hours at 4° C.; Cheng-Prusoff from IC50.
Procedure: A baculovirus expression plasmid comprising cDNA encoding the human glucocorticoid receptor protein (GR) was prepared using standard techniques. […] That expression plasmid was co-transfected together with wild type Autographa californica multiple nuclear polyhedrosis virus DNA into Spodopter frugiperda-21 (Sf-21) cells to generate recombinant virus comprising GR cDNA. […] That recombinant virus comprising GR cDNA was collected.
A suspension culture of uninfected Sf21 cells was grown to a density of 1.2×10^6 cells/ml and then infected with the recombinant virus comprising GR cDNA at a multiplicity of infection of 2. Those infected Sf21 cells were incubated for 48 hours and then collected by centrifugation at 1000×g for 10 minutes at 4° C. The resulting cell pellets were resuspended in lysis buffer (50 mM Potassium Phosphate buffer, pH 7.0, 10 mM Monothioglycerol, 5 mM DTT, 20 mM Sodium Molybdate, 1 mM PMSF, 1 μg/mL aprotinin, and 10 μg/mL leupeptin) and incubated for 15 minutes on ice. Those resuspended cell pellets were homogenized using a Dounce homogenizer and a B pestle. A volume of 2 M KCl was added to the homogenized cell pellets to a final concentration of 0.4 M. The resulting GR lysates were centrifuged at 100,000×g for 60 min at 4° C. and stored for use in binding assays.
Binding assay samples were prepared in separate mini-tubes in a 96-well format at 4° C. […] Each reference compound and test compound was assayed at varying concentrations, ranging from 0 to 10^−5 M. Each concentration of each reference compound and each test compound was assayed in triplicate. The assay samples were incubated for 16 hours at 4° C.
After incubation, 200 μl of 6.25% hydroxylapatite in assay buffer was added to each assay sample to precipitate the protein. The assay samples were then centrifuged and the supernatants were discarded. The resulting pellets were washed twice with assay buffer lacking DTT. Radioactivity in counts per minute (CPM) of each washed pellet was determined by liquid scintillation counter (MicroBeta™, Wallach).
Turning to `COc1c(C#N)cccc1-c1cc(C)c2c(c1Cl)C(C)C(O)C(C)(C)N2` (racemic) [Compound 165, (±)-5-Chloro-6-(3-cyano-2-methoxyphenyl)-1,2,3,4-tetrahydro-3β-hydroxy-2,2,4α,8-tetramethylquinoline], the Ki worked out at 0.0027 µM.

By Ki is commonly meant the equilibrium dissociation constant of an inhibitor or competing ligand from its target. The low end stands for a stronger hold on the target, the high end for a looser hold on the target.
